Laboratory results from publication PMC7281280, “Is the Way to Fight Cancer Paved with Gold? Metal-Based Carbene Complexes with Multiple and Fascinating Biological Features” (Pharmaceuticals, 2020).

Columns and labels:
[1] = test system: MDA-MB-231 cells; assay: Muse cell cycle assay; details: at IC50, 72 h
[2] = test system: MDA-MB-231 cells; assay: Detection of intracellular ROS (DCF-DA); assay type: cell-based, human
Description: We used 2,7-dichlorofluorescin diacetate (DCF-DA) as a fluorometric probe for ROS detection and their production was examined under an inverted fluorescence microscope, as already reported.
Cells were grown on glass coverslips until the treatment with compound or menadione (used as positive control) (Sigma–Aldrich, Milan, Italy). Then, cells were incubated with 10 μM 2′-7′-Dichlorofluorescein diacetate (Sigma–Aldrich, Milan, Italy) for 40 min at 37 °C in a 5% CO2 incubator, as previously described. Then, DAPI (0.2 μg mL^−1) counterstain was performed for 10 min at room temperature, in the dark. Cells were then washed three times with cold PBS, adding one drop of mounting solution, then they were observed and imaged under a fluorescence microscope (Leica DM6000; 20× magnification) with excitation/emission wavelength maxima of 490 nm/515 nm (DCF) or 350 nm/460 nm (DAPI). Images are representative of three independent experiments.
Images were acquired at 20× magnification. […] Fields are representative of three separate experiments.

[3] = test system: MCF-10A human mammary epithelial cells; assay: MTT cell viability, normal MCF-10A; assay type: cell-based; details: 72 h, mean ± SD
Description: (§1) The six cell lines used in this work (MCF-7, MDA-MB-231, HeLa, […], MCF-10A and Hek-293) were purchased from American Type Culture Collection (ATCC, Manassas, VA, USA). MCF-7 human breast cancer cells, estrogen receptor (ER)-positive, were maintained in Dulbecco’s modified Eagle’s medium/nutrient mixture Ham F-12 (DMEM/F12), supplemented with 10% fetal bovine serum (FBS) and 100 U mL^−1 penicillin/streptomycin. MCF-10A human mammary epithelial cells, were cultured in DMEM/F12 medium, supplemented with 5% horse serum (HS, Thermo Fisher Scientific, Milan, Italy), 100 U mL^−1 penicillin/streptomycin, […] hydrocortisone, 20 ng mL^−1 human epidermal growth factor (hEGF), […] insulin, and […] cholera enterotoxin (Sigma–Aldrich, Milan, Italy). MDA-MB-231 human breast cancer cells, known as triple-negative cells (i.e., not overexpressing human epidermal growth factor receptor 2 (HER2), estrogen and progesterone receptors), were cultured in DMEM/F12 supplemented with 5% FBS, 1% L-glutamine and 100 U mL^−1 penicillin/streptomycin. HeLa human epithelial cervix carcinoma cells, estrogen receptor (ER)-negative, and […] human endometrial adenocarcinoma cells, estrogen receptor (ER)-positive, were maintained in minimum essential Eagle’s Medium (MEM), supplemented with 10% FBS, 1% L-glutamine, 100 U mL^−1 penicillin/streptomycin and 1% Non-Essential Amino Acids (NEAA). Hek-293 human embryonic kidney epithelial cells were cultured in DMEM high glucose (4.5 g L^−1), supplemented with 10% FBS, 1% L-glutamine and 100 U mL^–1 penicillin/streptomycin. Cells were maintained at 37 °C in a humidified atmosphere of 95% air and 5% CO2 and periodically screened for contamination.
(§2) Cell viability has been determined using the 3-(4,5-dimethylthiazol-2-y1)-2,5-diphenyltetrazolium bromide (MTT, Sigma–Aldrich, Milan, Italy) assay. Cells have been seeded on 48-well plates and grown in complete medium. Before being treated, cells have been starved in serum free medium for 24 h for allowing cell cycle synchronization. […] Data are representative of three independent experiments; standard deviations (SD) have been shown.

[4] = test system: MDA-MB-231 cells; details: at IC50 value, 24 h
Description: At this purpose, we performed immunostaining studies using the mitochondrial probe MitoTracker Deep Red FM and an anti-cytochrome c antibody, to follow the possible release of this protein from the mitochondrial district to the cytoplasm.
The same protocol was performed for mitochondrial staining. […] The primary antibody used in this case was the mouse anti-cytochrome c (556 433), purchased from BD Biosciences. The secondary antibodies used was Alexa Fluor® 488 conjugate goat-anti-mouse (1:500 dilution), purchased from Thermo Fisher Scientific, Waltham, MA, USA.
Images were acquired at 63x magnification and representative fields are shown.

[5] = test system: caspase-9; details: 5 μM, 24 h, MDA-MB-231 cells
[6] = test system: ISHIKAWA human endometrial adenocarcinoma cells; assay: MTT cell viability, […]; assay type: cell-based; details: 72 h, mean ± SD
Description: as §1, §2

[7] = test system: MDA-MB-231 cells; assay: Immunofluorescence of microtubules, MDA-MB-231; assay type: cell-based, human; details: at IC50 value, 24 h
Description: Cells were grown on glass coverslips in full media, then serum-deprived for 24 h and exposed to compounds for 24 h (concentration equal to its IC50 value). Then, the cells after PBS-washed, were fixed with cold methanol (15 min/−20 °C) and incubated with primary antibody, diluted in blocking solution (4 °C/overnight), as previously described. The mouse anti-β-Actin (69879) and the rabbit anti-β tubulin (9104) were purchased from Santa Cruz Biotechnology and used at 1:100 dilution. Coverslips were then washed 3 times with PBS, then fixed cells were incubated with the secondary antibody Alexa Fluor® 568 conjugate goat-anti-mouse and Alexa Fluor® 488 conjugate goat-anti-rabbit (1:500, Thermo Fisher Scientific, Waltham, MA, USA). Nuclei were stained using DAPI (Sigma–Aldrich, Mila, Italy) for 10 min at a concentration of 0.2 μg/mL then washed 3 times with PBS. Fluorescence was detected using a fluorescence microscope (Leica DM 6000). LAS-X software was used to acquire and process all images.
Figure 5 Immunofluorescence studies. […] Panels A: DAPI, excitation/emission wavelength 350 nm/460 nm; panels B: β-tubulin (Alexa Fluor® 488) excitation/emission wavelength 490 nm/515 nm; panels C show a merge. Representative fields are shown.

[8] = test system: caspases 3/7; assay: Caspase-Glo assay, caspases 3/7; details: 5 μM, 24 h, MDA-MB-231 cells
[9] = test system: HeLa human epithelial cervix carcinoma cells; assay: MTT cell viability, HeLa; assay type: cell-based; details: 72 h, mean ± SD
Description: as §1, §2

[10] = test system: caspase-8; details: 5 μM, 24 h, MDA-MB-231 cells
[11] = test system: MCF-7 human breast cancer cells; assay: MTT cell viability, MCF-7; assay type: cell-based; details: 72 h, mean ± SD
Description: as §1, §2

[12] = test system: MDA-MB-231 human breast cancer cells; assay: MTT cell viability, MDA-MB-231; assay type: cell-based; details: 72 h, mean ± SD
Description: as §1, §2

## C[n+]1c(Cl)c(Cl)n(CC(O)c2ccccc2)[c]1[Au-][c]1n(CC(O)c2ccccc2)c(Cl)c(Cl)[n+]1C.[Cl][Au-][Cl] (racemic) [AuL7, bis-[4,5-dichloro-(N-methyl-N’(2-hydroxy-2-phenyl)ethyl-imidazole-2-ylidene)gold(I)]^+[dichloro-gold]^−]
[1]
  increase of the percentage of cells in G2/M phase vs DMSO control: 33.2%
  increase of the percentage of cells in S phase vs DMSO control: 16.1%
[2]; DCF fluorescence quantified by ImageJ
  ROS production, fold lesser compared to Men-treated cells: 1.5 fold
[2]; fluorescence microscopy
  ROS production (DCF green fluorescence): significantly higher with respect to the vehicle-treated cells
[3]
  IC50: > 200 µM
  IC50 MCF-10A: inactive
[4]
  cytochrome c localization: cytochrome c release and diffusion into the cytoplasmic compartment
  mitochondrial integrity (MitoTracker Deep Red FM): loss of mitochondrial structural integrity
[5]
  caspase-9 activity: discrete increase
[6]
  IC50: 29.9 ± 0.9 µM
[7]
  effect on microtubule network, MDA-MB-231: vinblastine-like mode of action
[8]
  caspases 3/7 activity: clear increase
[9]
  IC50: 31.9 ± 0.5 µM
[10]
  caspase-8 activity: unchanged
[11]
  IC50: 5.18 ± 0.4 µM
[12]
  IC50: 2.1 ± 0.7 µM
